Assay results taken from US20120270928A1, “MICRORNA COMPOUNDS AND METHODS FOR MODULATING MIR-21 ACTIVITY” (REGULUS THERAPEUTICS INC., priority 2011, published 2012).
Several values for one entry are separate records, joined by “and”; a condition that tells them apart may be missing. Equal entries are not always repeated. Entries after “also recorded” stand apart in the source; their conditions may differ.

Experiments:
[1] = test system: UUO model of kidney fibrosis; assay: Unilateral ureteral obstruction (UUO) model of kidney fibrosis: kidney collagen 1A1 and collagen 3A1 expression by real-time PCR; type: in vivo, mice; settings: for Collagen 3A1 (Normalized Expression) Mean / Collagen 1A1 (Normalized Expression) Mean: group mean; for Collagen 1A1 (Normalized Expression) / Collagen 3A1 (Normalized Expression): individual animals, 20 mg/kg
Method in brief: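 Fibrosis induced by unilateral ureter ligation, groups of 8; anti-miR-21 compounds dosed at 20 mg/kg around surgery (days −3, −1, +5 or −5, −3, +3; repeat study subcutaneous at −5, −2, +3). Kidneys taken on day 10 or 11; Col1A1 and Col3A1 mRNA measured by real-time PCR, normalized to GAPDH and, in one study, also to sham.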

miR-21 = miR-21 luciferase sensor assay in Hela cells; type: cell-based
[2] = Table K, UUO mice, 20 mg/kg at days -3, -1, +5, kidney at day 11, UUO-PBS mean 87.2
[3] = Table K, UUO mice, 20 mg/kg at days -3, -1, +5, kidney at day 11, UUO-PBS mean 114.9
[4] = Table K, UUO mice, 20 mg/kg at days -3, -1, +5 (prophylactic), kidney at day 11, real-time PCR normalized to GAPDH then sham
[5] = 4 nM oligonucleotide, Hela cells
[6] = 20 nM oligonucleotide, Hela cells
[7] = 100 nM oligonucleotide, Hela cells
[8] = 500 nM oligonucleotide, Hela cells, two experimental replicates
[9] = .16 nM oligonucleotide, Hela cells
[10] = .8 nM oligonucleotide, Hela cells
[11] = Table L, repeat UUO study, 20 mg/kg SC, prophylactic
[12] = Table M, UUO, 25070 20 mg/kg s.c. 5 and 2 days prior to and 3 days after UUO, irbesartan PO daily days 0-7, sacrifice Day 10
[13] = meta-analysis of UUO studies, 20 mg/kg at days -3, -1, +5, kidney at day 11
[14] = repeated UUO study, subcutaneously 20 mg/kg, prophylactic

“UECEAFAFCFAFUFCFAFGFUFCEUEGEAFUFAFAFGFCFUEAE (antisense TCAACATCAGTCTGATAAGCTA; listed as DNA, chemistry not fully specified) [Compound 25919, reference compound]” was tested, and the “Collagen 3A1 (Normalized Expression) Mean” value [1, 2] was 56.9, the “Collagen 1A1 (Normalized Expression) Mean” value [1, 3] was 86.6 and the “Collagen 1A1 (Normalized Expression)” value [1, 4] was 150.2 and 54.2 and 84.6 and 67.7 and 78.7 and 62.2 and 89.2 and 106.2. The “Collagen 3A1 (Normalized Expression)” value [1, 4] was 67.1 and 33.9 and 87.6 and 47.3 and 67.7 and 46.7 and 47.0 and 57.8, the “luciferase value normalized to beta-galactosidase activity” value (“luciferase value normalized” below) (miR-21; [5]) was 84 and the “luciferase value normalized” value (miR-21; [6]) was 114. For the same sequence, the “luciferase value normalized” value (miR-21; [7]) was 171, the “luciferase value normalized” value (miR-21; [8]) was 202 and the “luciferase value normalized” value (miR-21; [9]) was 40. The “luciferase value normalized” value (miR-21; [10]) was 53.

For “AECSATCSAGTCSTGAUSAAGCSTAE (ACATCAGTCTGATAAGCTA; modified nucleosides, phosphorothioate linkages, chemistry not fully specified) [Compound 25070]”, the “Collagen 3A1 (Normalized Expression) Mean” value [1, 2] was 55.5, the “Collagen 1A1 (Normalized Expression) Mean” value [1, 3] was 81.0 and the “Collagen 1A1 (Normalized Expression)” value [1, 4] was 67.7 and 97.7 and 88.8 and 95.9 and 71.4 and 44.5 and 73.0 and 109.4. For the same sequence, the “Collagen 3A1 (Normalized Expression)” value [1, 4] was 36.4 and 75.6 and 47.3 and 55.5 and 63.3 and 28.5 and 64.2 and 72.9, the “Collagen 3A1 (Normalized Expression) Mean” value ([1]; Table L, repeat UUO study, 20 mg/kg SC, prophylactic, UUO-PBS mean 58.8) was 42.4 and the “Collagen 1A1 (Normalized Expression) Mean” value ([1]; Table L, repeat UUO study, 20 mg/kg SC, prophylactic, UUO-PBS mean 74.3) was 30.2. For the same sequence, the “Collagen 1A1 (Normalized Expression)” value [1, 11] was 13.9 and 9.2 and 32.3 and 57.2 and 47.6 and 26.1 and 35.0 and 20.4, the “Collagen 3A1 (Normalized Expression)” value [1, 11] was 34.9 and 47.4 and 25.3 and 38.0 and 47.9 and 54.3 and 56.1 and 35.2 and the “Collagen 3A1 (Normalized Expression) Mean” value ([1]; Table M, UUO, 25070 20 mg/kg s.c., irbesartan PO daily days 0-7, Day 10, UUO-PBS 93.2, Tween/MC vehicle 132.4) was 53.7. For the same sequence, the “Collagen 1A1 (Normalized Expression) Mean” value ([1]; Table M, UUO, 25070 20 mg/kg s.c., irbesartan PO daily days 0-7, Day 10, UUO-PBS 129.6, Tween/MC vehicle 150.2) was 64.2, the “Collagen 1A1 (Normalized Expression)” value [1, 12] was 87.5 and 67.4 and 22.2 and 61.9 and 42.0 and 69.2 and 68.4 and 95.2 and the “Collagen 3A1 (Normalized Expression)” value [1, 12] was 38.6 and 56.9 and 77.2 and 50.7 and 76.4 and 49.7 and 44.3 and 35.9. For the same sequence, the “reduction in Col3a1 expression (significance)” value ([1]; UUO, comparison with irbesartan, sacrifice Day 10) was “statistically significant reductions”, the “reduction in Col1A1 expression relative to saline-treated animals (significance)” value ([1]; UUO, comparison with irbesartan, sacrifice Day 10, p<0.05 by one-way ANOVA) was “statistically significant reduction” and the “reduction in collagen expression (in words)” value ([1]; meta-analysis of UUO studies, 20 mg/kg at days -3, -1, +5) was “greatest potency”. The “inhibition of collagen 1A1” value [1, 13] was 40%, the “inhibition of collagen 3A1” value [1, 13] was 30% and the “collagen 1A1 expression (in words)” value [1, 14] was “potent inhibitor of collagen 1A1 and collagen 3A1 expression”. The “collagen 3A1 expression (in words)” value [1, 14] was “potent inhibitor of collagen 1A1 and collagen 3A1 expression”, the “luciferase value normalized” value (miR-21; [5]) was 99 and the “luciferase value normalized” value (miR-21; [6]) was 128. For the same sequence, the “luciferase value normalized” value (miR-21; [7]) was 132, the “luciferase value normalized” value (miR-21; [8]) was 165 and the “luciferase value normalized” value (miR-21; [9]) was 65. The “luciferase value normalized” value (miR-21; [10]) was 87, the “inhibition of miR-21 activity in the luciferase assay (in words)” value (miR-21; Hela cells) was “inhibition of miR-21 in a dose-dependent manner; also recorded: potent inhibitor of miR-21 activity” and the “fold change in luciferase value relative to the mock treatment” value (miR-21; concentration of anti-miR compound 0.2 (unit not given)) was 1.04 fold change. For the same sequence, the “fold change in luciferase value relative to the mock treatment” value (miR-21; concentration of anti-miR compound 0.6 (unit not given)) was 1.01 fold change, the “fold change in luciferase value relative to the mock treatment” value (miR-21; concentration of anti-miR compound 1.9 (unit not given)) was 1.14 fold change and the “fold change in luciferase value relative to the mock treatment” value (miR-21; concentration of anti-miR compound 5.6 (unit not given)) was 6.22 fold change. For the same sequence, the “fold change in luciferase value relative to the mock treatment” value (miR-21; concentration of anti-miR compound 16.7 (unit not given)) was 11.28 fold change and the “fold change in luciferase value relative to the mock treatment” value (miR-21; concentration of anti-miR compound 50.0 (unit not given)) was 11.00 fold change.
